Data: ChEMBL document CHEMBL1152441, “Discovery of [18F]N-(2-(diethylamino)ethyl)-6-fluoronicotinamide: a melanoma positron emission tomography imaging radiotracer with high tumor to body contrast ratio and rapid renal clearance” (J Med Chem, 2009)

Assays:
[1] = Biodistribution in eye of mouse B16F0 cells implanted C57BL/6J mouse assessed per gram of tissue at 0.4 to 5.5 MBq, iv after 0.5 hrs by gamma counter; type: ADME, organism-based; conditions: in vivo
[2] = Biodistribution in eye of mouse B16F0 cells implanted C57BL/6J mouse assessed per gram of tissue at 0.4 to 5.5 MBq, iv after 0.25 hrs by gamma counter; type: ADME, organism-based; conditions: in vivo
[3] = Biodistribution in tumor of mouse B16F0 cells implanted C57BL/6J mouse assessed per gram of tissue at 0.4 to 5.5 MBq, iv after 6 hrs by gamma counter; type: ADME, organism-based, Neoplasm; conditions: in vivo
[4] = Biodistribution in tumor of mouse B16F0 cells implanted C57BL/6J mouse assessed per gram of tissue at 0.4 to 5.5 MBq, iv after 3 hrs by gamma counter; type: ADME, organism-based, Neoplasm; conditions: in vivo
[5] = Biodistribution in tumor of mouse B16F0 cells implanted C57BL/6J mouse assessed per gram of tissue at 0.4 to 5.5 MBq, iv after 2 hrs by gamma counter; type: ADME, organism-based, Neoplasm; conditions: in vivo
[6] = Biodistribution in tumor of mouse B16F0 cells implanted C57BL/6J mouse assessed per gram of tissue at 0.4 to 5.5 MBq, iv after 1 hr by gamma counter; type: ADME, organism-based, Neoplasm; conditions: in vivo
[7] = Biodistribution in tumor of mouse B16F0 cells implanted C57BL/6J mouse assessed per gram of tissue at 0.4 to 5.5 MBq, iv after 0.25 hrs by gamma counter; type: ADME, organism-based, Neoplasm; conditions: in vivo
[8] = Biodistribution in tumor of mouse B16F0 cells implanted C57BL/6J mouse assessed per gram of tissue at 0.4 to 5.5 MBq, iv after 0.5 hrs by gamma counter; type: ADME, organism-based, Neoplasm; conditions: in vivo
[9] = Lipophilicity, log P at pH 7.5; type: physicochemical; conditions: buffer
Bone [10] = experiment: Biodistribution in bone of mouse B16F0 cells implanted C57BL/6J mouse assessed per gram of tissue at 0.4 to 5.5 MBq, iv after 6 hrs by gamma counter; type: ADME, organism-based, Bone element; conditions: in vivo
Bone [11] = experiment: Biodistribution in bone of mouse B16F0 cells implanted C57BL/6J mouse assessed per gram of tissue at 0.4 to 5.5 MBq, iv after 3 hrs by gamma counter; type: ADME, organism-based, Bone element; conditions: in vivo
Bone [12] = experiment: Biodistribution in bone of mouse B16F0 cells implanted C57BL/6J mouse assessed per gram of tissue at 0.4 to 5.5 MBq, iv after 2 hrs by gamma counter; type: ADME, organism-based, Bone element; conditions: in vivo
Bone [13] = experiment: Biodistribution in bone of mouse B16F0 cells implanted C57BL/6J mouse assessed per gram of tissue at 0.4 to 5.5 MBq, iv after 1 hr by gamma counter; type: ADME, organism-based, Bone element; conditions: in vivo
Bone [14] = experiment: Biodistribution in bone of mouse B16F0 cells implanted C57BL/6J mouse assessed per gram of tissue at 0.4 to 5.5 MBq, iv after 0.5 hrs by gamma counter; type: ADME, organism-based, Bone element; conditions: in vivo
Bone [15] = experiment: Biodistribution in bone of mouse B16F0 cells implanted C57BL/6J mouse assessed per gram of tissue at 0.4 to 5.5 MBq, iv after 0.25 hrs by gamma counter; type: ADME, organism-based, Bone element; conditions: in vivo
Intestine [16] = experiment: Biodistribution in intestine of mouse B16F0 cells implanted C57BL/6J mouse assessed per gram of tissue at 0.4 to 5.5 MBq, iv after 6 hrs by gamma counter; type: ADME, organism-based; conditions: in vivo
Intestine [17] = experiment: Biodistribution in intestine of mouse B16F0 cells implanted C57BL/6J mouse assessed per gram of tissue at 0.4 to 5.5 MBq, iv after 3 hrs by gamma counter; type: ADME, organism-based; conditions: in vivo
Intestine [18] = experiment: Biodistribution in intestine of mouse B16F0 cells implanted C57BL/6J mouse assessed per gram of tissue at 0.4 to 5.5 MBq, iv after 2 hrs by gamma counter; type: ADME, organism-based; conditions: in vivo
Intestine [19] = experiment: Biodistribution in intestine of mouse B16F0 cells implanted C57BL/6J mouse assessed per gram of tissue at 0.4 to 5.5 MBq, iv after 1 hr by gamma counter; type: ADME, organism-based; conditions: in vivo
Intestine [20] = experiment: Biodistribution in intestine of mouse B16F0 cells implanted C57BL/6J mouse assessed per gram of tissue at 0.4 to 5.5 MBq, iv after 0.5 hrs by gamma counter; type: ADME, organism-based; conditions: in vivo
Intestine [21] = experiment: Biodistribution in intestine of mouse B16F0 cells implanted C57BL/6J mouse assessed per gram of tissue at 0.4 to 5.5 MBq, iv after 0.25 hrs by gamma counter; type: ADME, organism-based; conditions: in vivo
Stomach [22] = experiment: Biodistribution in stomach of mouse B16F0 cells implanted C57BL/6J mouse assessed per gram of tissue at 0.4 to 5.5 MBq, iv after 6 hrs by gamma counter; type: ADME, organism-based; conditions: in vivo
Stomach [23] = experiment: Biodistribution in stomach of mouse B16F0 cells implanted C57BL/6J mouse assessed per gram of tissue at 0.4 to 5.5 MBq, iv after 3 hrs by gamma counter; type: ADME, organism-based; conditions: in vivo
Stomach [24] = experiment: Biodistribution in stomach of mouse B16F0 cells implanted C57BL/6J mouse assessed per gram of tissue at 0.4 to 5.5 MBq, iv after 2 hrs by gamma counter; type: ADME, organism-based; conditions: in vivo
Stomach [25] = experiment: Biodistribution in stomach of mouse B16F0 cells implanted C57BL/6J mouse assessed per gram of tissue at 0.4 to 5.5 MBq, iv after 1 hr by gamma counter; type: ADME, organism-based; conditions: in vivo
Stomach [26] = experiment: Biodistribution in stomach of mouse B16F0 cells implanted C57BL/6J mouse assessed per gram of tissue at 0.4 to 5.5 MBq, iv after 0.5 hrs by gamma counter; type: ADME, organism-based; conditions: in vivo
Stomach [27] = experiment: Biodistribution in stomach of mouse B16F0 cells implanted C57BL/6J mouse assessed per gram of tissue at 0.4 to 5.5 MBq, iv after 0.25 hrs by gamma counter; type: ADME, organism-based; conditions: in vivo
Thyroid gland [28] = experiment: Biodistribution in thyroid of mouse B16F0 cells implanted C57BL/6J mouse assessed per gram of tissue at 0.4 to 5.5 MBq, iv after 6 hrs by gamma counter; type: ADME, organism-based; conditions: in vivo
Thyroid gland [29] = experiment: Biodistribution in thyroid of mouse B16F0 cells implanted C57BL/6J mouse assessed per gram of tissue at 0.4 to 5.5 MBq, iv after 3 hrs by gamma counter; type: ADME, organism-based; conditions: in vivo
Thyroid gland [30] = experiment: Biodistribution in thyroid of mouse B16F0 cells implanted C57BL/6J mouse assessed per gram of tissue at 0.4 to 5.5 MBq, iv after 2 hrs by gamma counter; type: ADME, organism-based; conditions: in vivo
Thyroid gland [31] = experiment: Biodistribution in thyroid of mouse B16F0 cells implanted C57BL/6J mouse assessed per gram of tissue at 0.4 to 5.5 MBq, iv after 1 hr by gamma counter; type: ADME, organism-based; conditions: in vivo
Thyroid gland [32] = experiment: Biodistribution in thyroid of mouse B16F0 cells implanted C57BL/6J mouse assessed per gram of tissue at 0.4 to 5.5 MBq, iv after 0.5 hrs by gamma counter; type: ADME, organism-based; conditions: in vivo
Thyroid gland [33] = experiment: Biodistribution in thyroid of mouse B16F0 cells implanted C57BL/6J mouse assessed per gram of tissue at 0.4 to 5.5 MBq, iv after 0.25 hrs by gamma counter; type: ADME, organism-based; conditions: in vivo
Spleen [34] = experiment: Biodistribution in spleen of mouse B16F0 cells implanted C57BL/6J mouse assessed per gram of tissue at 0.4 to 5.5 MBq, iv after 6 hrs by gamma counter; type: ADME, organism-based; conditions: in vivo
Spleen [35] = experiment: Biodistribution in spleen of mouse B16F0 cells implanted C57BL/6J mouse assessed per gram of tissue at 0.4 to 5.5 MBq, iv after 3 hrs by gamma counter; type: ADME, organism-based; conditions: in vivo
Spleen [36] = experiment: Biodistribution in spleen of mouse B16F0 cells implanted C57BL/6J mouse assessed per gram of tissue at 0.4 to 5.5 MBq, iv after 2 hrs by gamma counter; type: ADME, organism-based; conditions: in vivo
Spleen [37] = experiment: Biodistribution in spleen of mouse B16F0 cells implanted C57BL/6J mouse assessed per gram of tissue at 0.4 to 5.5 MBq, iv after 1 hr by gamma counter; type: ADME, organism-based; conditions: in vivo
Spleen [38] = experiment: Biodistribution in spleen of mouse B16F0 cells implanted C57BL/6J mouse assessed per gram of tissue at 0.4 to 5.5 MBq, iv after 0.5 hrs by gamma counter; type: ADME, organism-based; conditions: in vivo
Spleen [39] = experiment: Biodistribution in spleen of mouse B16F0 cells implanted C57BL/6J mouse assessed per gram of tissue at 0.4 to 5.5 MBq, iv after 0.25 hrs by gamma counter; type: ADME, organism-based; conditions: in vivo
Lung [40] = experiment: Biodistribution in lung of mouse B16F0 cells implanted C57BL/6J mouse assessed per gram of tissue at 0.4 to 5.5 MBq, iv after 6 hrs by gamma counter; type: ADME, organism-based; conditions: in vivo
Lung [41] = experiment: Biodistribution in lung of mouse B16F0 cells implanted C57BL/6J mouse assessed per gram of tissue at 0.4 to 5.5 MBq, iv after 3 hrs by gamma counter; type: ADME, organism-based; conditions: in vivo
Lung [42] = experiment: Biodistribution in lung of mouse B16F0 cells implanted C57BL/6J mouse assessed per gram of tissue at 0.4 to 5.5 MBq, iv after 2 hrs by gamma counter; type: ADME, organism-based; conditions: in vivo
Lung [43] = experiment: Biodistribution in lung of mouse B16F0 cells implanted C57BL/6J mouse assessed per gram of tissue at 0.4 to 5.5 MBq, iv after 1 hr by gamma counter; type: ADME, organism-based; conditions: in vivo
Lung [44] = experiment: Biodistribution in lung of mouse B16F0 cells implanted C57BL/6J mouse assessed per gram of tissue at 0.4 to 5.5 MBq, iv after 0.5 hrs by gamma counter; type: ADME, organism-based; conditions: in vivo
Lung [45] = experiment: Biodistribution in lung of mouse B16F0 cells implanted C57BL/6J mouse assessed per gram of tissue at 0.4 to 5.5 MBq, iv after 0.25 hrs by gamma counter; type: ADME, organism-based; conditions: in vivo
[46] = Biodistribution in eye of mouse B16F0 cells implanted C57BL/6J mouse assessed per gram of tissue at 0.4 to 5.5 MBq, iv after 6 hrs by gamma counter; type: ADME, organism-based; conditions: in vivo
[47] = Biodistribution in eye of mouse B16F0 cells implanted C57BL/6J mouse assessed per gram of tissue at 0.4 to 5.5 MBq, iv after 3 hrs by gamma counter; type: ADME, organism-based; conditions: in vivo
[48] = Biodistribution in eye of mouse B16F0 cells implanted C57BL/6J mouse assessed per gram of tissue at 0.4 to 5.5 MBq, iv after 2 hrs by gamma counter; type: ADME, organism-based; conditions: in vivo
[49] = Biodistribution in eye of mouse B16F0 cells implanted C57BL/6J mouse assessed per gram of tissue at 0.4 to 5.5 MBq, iv after 1 hr by gamma counter; type: ADME, organism-based; conditions: in vivo

CCN(CC)CCNC(=O)c1ccc([18F])nc1
Drug uptake [1]: 16% | Drug uptake [2]: 14.7% | Drug uptake [3]: 7.7% | Drug uptake [4]: 7.8% | Drug uptake [5]: 9.4% | Drug uptake [6]: 8.4% | Drug uptake [7]: 7% | Drug uptake [8]: 8.6% | logD [9]: 1.1 | Drug uptake (Bone [10]): 0.52% | Drug uptake (Bone [11]): 0.62% | Drug uptake (Bone [12]): 0.58% | Drug uptake (Bone [13]): 1.4% | Drug uptake (Bone [14]): 2.1% | Drug uptake (Bone [15]): 3.5% | Drug uptake (Intestine [16]): 0.13% | Drug uptake (Intestine [17]): 0.54% | Drug uptake (Intestine [18]): 0.71% | Drug uptake (Intestine [19]): 2.1% | Drug uptake (Intestine [20]): 3.9% | Drug uptake (Intestine [21]): 5.4% | Drug uptake (Stomach [22]): 0.19% | Drug uptake (Stomach [23]): 0.83% | Drug uptake (Stomach [24]): 1.5% | Drug uptake (Stomach [25]): 3.4% | Drug uptake (Stomach [26]): 6.6% | Drug uptake (Stomach [27]): 9.4% | Drug uptake (Thyroid gland [28]): 0.17% | Drug uptake (Thyroid gland [29]): 0.49% | Drug uptake (Thyroid gland [30]): 0.61% | Drug uptake (Thyroid gland [31]): 3.3% | Drug uptake (Thyroid gland [32]): 2.5% | Drug uptake (Thyroid gland [33]): 5.5% | Drug uptake (Spleen [34]): 0.47% | Drug uptake (Spleen [35]): 0.89% | Drug uptake (Spleen [36]): 1.8% | Drug uptake (Spleen [37]): 2.4% | Drug uptake (Spleen [38]): 7.2% | Drug uptake (Spleen [39]): 8.6% | Drug uptake (Lung [40]): 0.07% | Drug uptake (Lung [41]): 0.25% | Drug uptake (Lung [42]): 0.38% | Drug uptake (Lung [43]): 1.6% | Drug uptake (Lung [44]): 2.9% | Drug uptake (Lung [45]): 5.6% | Drug uptake [46]: 15.6% | Drug uptake [47]: 17.3% | Drug uptake [48]: 17.3% | Drug uptake [49]: 18.8%
